# From US20080064701A1, “Anti-diabetic combinations” (priority 2007, published 2008)
# Read-outs that look alike come from different tables or passages of the source.
# Columns and labels:
# [1] = tested on: patients with type 2 diabetes; details: human, in vivo; for patients who had adverse events: 24 weeks
# From the text: Laboratory results were then reviewed for these particular patients to determine which patients actually had clinically important changes in a given laboratory parameter.
# patients with T2DM = details: cited from earlier work
# [2] = monotherapy, 100 or 200 mg daily
Compound,patients who had adverse events [1] [%],clinically important decreases in any hematological parameter attributable to drug [1],responsibility for clinically meaningful elevations in ALT and AST [1],weight gain (patients with T2DM; 24-week monotherapy studies),"patients achieving a HbA1C of <7% (patients with T2DM; 24-week, background pioglitazone (30 or 45 mg daily)) [%]","mean HbA1C reduction (patients with T2DM; 24-week, sitagliptin 100 mg daily add-on to pioglitazone (30 or 45 mg daily), mean baseline HbA1C 8.1%) [%]",HbA1C (patients with T2DM; [2]),hypoglycemia (patients with T2DM; [2]),fasting and postprandial glycaemia (patients with T2DM; monotherapy),"mean placebo-subtracted reduction in HbA1C (patients with T2DM; sitagliptin 100 mg daily added to at least 1,500 mg per day of metformin) [%]","patients achieving a HbA1C of <7% (patients with T2DM; sitagliptin 100 mg daily added to at least 1,500 mg per day of metformin, mean baseline HbA1C 8%) [%]"
CN(C)C(=N)N=C(N)N [metformin],10,,,,,,,,,,
"N[C@@H](CC(=O)N1CCn2c(nnc2C(F)(F)F)C1)Cc1cc(F)c(F)cc1F [sitagliptin, Sitagliptin]",8,no patient experienced clinically important decreases,not responsible for the variations,no significant weight gain,45.4,0.7,significantly reduced,no significant increase in hypoglycemia,reduced both fasting and postprandial glycaemia,0.65,47
